From US20160271263A1 (Novo Nordisk A/S, priority 2010, published 2016)
pEC50: −log10 of the molar value. Numbered stars: 1 amine (or outer) side, 2 acyl side, 3 side chain; on linkers, the order of the positions; unused ones are H or OH. Square brackets hold non-standard residues; d marks the D form. Side chains are listed from the residue outwards. Peptide text beside a SMILES is read from it. * marks the point of attachment. C18 diacid = O=C(O)CCCCCCCCCCCCCCCCC(=O)*; γGlu = O=C(O)[C@H](CCC(=O)[*:2])N[*:1]; AEEA = NCCOCCOCC(=O)O; Aib = CC(C)(N)C(=O)O

Molecular target: glucagon receptor (Homo sapiens, UniProt P47871)
Assay: cell-based

glucagon receptor, sequence (P47871 26-477): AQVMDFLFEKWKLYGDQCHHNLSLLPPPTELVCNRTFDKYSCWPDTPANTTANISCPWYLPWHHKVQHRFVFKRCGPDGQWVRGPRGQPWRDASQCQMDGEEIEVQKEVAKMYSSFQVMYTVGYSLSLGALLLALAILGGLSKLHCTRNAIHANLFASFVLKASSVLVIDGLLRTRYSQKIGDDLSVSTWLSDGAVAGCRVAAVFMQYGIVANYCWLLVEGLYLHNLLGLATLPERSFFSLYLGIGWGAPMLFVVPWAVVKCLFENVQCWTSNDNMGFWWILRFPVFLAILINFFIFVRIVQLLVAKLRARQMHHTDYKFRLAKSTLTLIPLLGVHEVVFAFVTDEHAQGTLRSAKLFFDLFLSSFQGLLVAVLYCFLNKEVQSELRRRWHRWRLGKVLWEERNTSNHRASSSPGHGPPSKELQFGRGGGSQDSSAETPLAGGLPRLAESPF

pEC50	SMILES
9.91	CC(C)C[C@H](NC(=O)[C@H](Cc1ccc(O)cc1)NC(=O)[C@H](CCCCN)NC(=O)[C@H](CO)NC(=O)[C@H](Cc1ccc(O)cc1)NC(=O)[C@H](CC(=O)O)NC(=O)[C@H](CO)NC(=O)[C@@H](NC(=O)[C@H](Cc1ccccc1)NC(=O)[C@@H](NC(=O)CNC(=O)[C@H](CCC(N)=O)NC(=O)[C@H](CO)NC(=O)[C@@H](N)Cc1c[nH]cn1)[C@@H](C)O)[C@@H](C)O)C(=O)N[C@@H](CC(=O)O)C(=O)N[C@@H](CCCCNC(=O)CC[C@H](NC(=O)COCCOCCNC(=O)COCCOCCNC(=O)CC[C@H](NC(=O)CC[C@H](NC(=O)CCCCCCCCCCCCCCCCC(=O)O)C(=O)O)C(=O)O)C(=O)O)C(=O)N[C@@H](CCCNC(=N)N)C(=O)N[C@@H](CCCNC(=N)N)C(=O)N[C@@H](C)C(=O)N[C@@H](CCC(N)=O)C(=O)N[C@@H](CC(=O)O)C(=O)N[C@@H](Cc1ccccc1)C(=O)N[C@H](C(=O)N[C@@H](CCC(N)=O)C(=O)N[C@@H](Cc1c[nH]c2ccccc12)C(=O)N[C@@H](CC(C)C)C(=O)N[C@@H](CC(C)C)C(=O)N[C@@H](CC(N)=O)C(=O)N[C@H](C(=O)O)[C@@H](C)O)C(C)C [Example 78, N^ε16-[(4S)-4-carboxy-4-[[2-[2-[2-[[2-[2-[2-[[(4S)-4-carboxy-4-[[(4S)-4-carboxy-4-(17-carboxyheptadecanoylamino)butanoyl]amino]butanoyl]amino]ethoxy]ethoxy]acetyl]amino]ethoxy]ethoxy]acetyl]amino]butanoyl]-[Lys^16,Leu^27]-Glucagon] (H-HSQGTFTSDYSKYLDK([γGlu-AEEA-AEEA-γGlu-γGlu-C18 diacid])RRAQDFVQWLLNT-OH; N-terminus and C-terminus assumed)
10.80	CC(C)C[C@H](NC(=O)[C@H](Cc1ccc(O)cc1)NC(=O)[C@H](CCCCN)NC(=O)[C@H](CO)NC(=O)[C@H](Cc1ccc(O)cc1)NC(=O)[C@H](CC(=O)O)NC(=O)[C@H](CO)NC(=O)[C@@H](NC(=O)[C@H](Cc1ccccc1)NC(=O)[C@@H](NC(=O)CNC(=O)[C@H](CCC(N)=O)NC(=O)[C@H](CO)NC(=O)[C@@H](N)Cc1c[nH]cn1)[C@@H](C)O)[C@@H](C)O)C(=O)N[C@@H](CC(=O)O)C(=O)N[C@@H](CO)C(=O)N[C@@H](CCCCN)C(=O)N[C@@H](CCCNC(=N)N)C(=O)N[C@@H](C)C(=O)N[C@@H](CCC(N)=O)C(=O)N[C@@H](CCC(=O)O)C(=O)N[C@@H](Cc1ccccc1)C(=O)N[C@H](C(=O)N[C@@H](CCCCNC(=O)COCCOCCNC(=O)COCCOCCNC(=O)CC[C@H](NC(=O)CCCCCCCCCCCCCCCCC(=O)O)C(=O)O)C(=O)N[C@@H](Cc1c[nH]c2ccccc12)C(=O)N[C@@H](CC(C)C)C(=O)N[C@@H](CC(C)C)C(=O)N[C@@H](CC(N)=O)C(=O)N[C@H](C(N)=O)[C@@H](C)O)C(C)C [Example 35, N^ε24-([2-[2-[2-[[2-[2-[2-[[(4S)-5-hydroxy-4-[(18-hydroxy-18-oxooctadecanoyl)amino]-5-oxopentanoyl]amino]ethoxy]ethoxy]acetyl]amino]ethoxy]ethoxy]acetyl])[Lys^17,Glu^21, Lys^24, Leu^27]Glucagon peptide amide] (H-HSQGTFTSDYSKYLDSKRAQEFVK([AEEA-AEEA-γGlu-C18 diacid])WLLNT-NH2; N-terminus assumed)
8.67	CC(C)C[C@H](NC(=O)[C@H](Cc1ccc(O)cc1)NC(=O)[C@H](CCCNC(=N)N)NC(=O)[C@H](CO)NC(=O)[C@H](Cc1ccc(O)cc1)NC(=O)[C@H](CC(=O)O)NC(=O)[C@H](CO)NC(=O)[C@@H](NC(=O)[C@H](Cc1ccccc1)NC(=O)[C@@H](NC(=O)CNC(=O)[C@H](CCC(N)=O)NC(=O)[C@H](CO)NC(=O)[C@@H](N)Cc1c[nH]cn1)[C@@H](C)O)[C@@H](C)O)C(=O)N[C@@H](CC(=O)O)C(=O)N[C@@H](CO)C(=O)N[C@@H](CCCNC(=N)N)C(=O)N[C@@H](CCCNC(=N)N)C(=O)N[C@@H](C)C(=O)N[C@@H](CCC(N)=O)C(=O)N[C@@H](CC(=O)O)C(=O)N[C@@H](Cc1ccccc1)C(=O)N[C@H](C(=O)N[C@@H](CCC(N)=O)C(=O)N[C@@H](Cc1c[nH]c2ccccc12)C(=O)N[C@@H](CC(C)C)C(=O)N[C@@H](CCCCNC(=O)CC[C@H](NC(=O)CC[C@H](NC(=O)COCCOCCNC(=O)COCCOCCNC(=O)CC[C@H](NC(=O)CCCCCCCCCCCCCCCCC(=O)O)C(=O)O)C(=O)O)C(=O)O)C(=O)N[C@@H](CC(N)=O)C(=O)N1CCC[C@H]1C(=O)O)C(C)C [Example 87, N^ε27-[(4S)-4-carboxy-4-[[(4S)-4-carboxy-4-[[2-[2-[2-[[2-[2-[2-[[(4S)-4-carboxy-4-(17-carboxyheptadecanoylamino)butanoyl]amino]ethoxy]ethoxy]acetyl]amino]ethoxy]ethoxy]acetyl]amino]butanoyl]amino]butanoyl]-[Arg^12,Lys^27,Pro^29]-Glucagon]
10.32	CC(C)C[C@H](NC(=O)[C@H](Cc1ccc(O)cc1)NC(=O)[C@H](CCCCN)NC(=O)[C@H](CO)NC(=O)[C@H](Cc1ccc(O)cc1)NC(=O)[C@H](CC(=O)O)NC(=O)[C@H](CO)NC(=O)[C@@H](NC(=O)[C@H](Cc1ccccc1)NC(=O)[C@@H](NC(=O)CNC(=O)[C@H](CCC(N)=O)NC(=O)[C@H](CO)NC(=O)[C@@H](N)Cc1c[nH]cn1)[C@@H](C)O)[C@@H](C)O)C(=O)N[C@@H](CC(=O)O)C(=O)N[C@@H](CCC(=O)O)C(=O)N[C@@H](CCCCN)C(=O)N[C@@H](C)C(=O)N[C@@H](C)C(=O)N[C@@H](CCC(N)=O)C(=O)N[C@@H](CCC(=O)O)C(=O)N[C@@H](Cc1ccccc1)C(=O)N[C@H](C(=O)N[C@@H](CCCCNC(=O)COCCOCCNC(=O)COCCOCCNC(=O)CC[C@H](NC(=O)CCCCCCCCCCCCCCCCC(=O)O)C(=O)O)C(=O)N[C@@H](Cc1c[nH]c2ccccc12)C(=O)N[C@@H](CC(C)C)C(=O)N[C@@H](CC(C)C)C(=O)N[C@@H](CC(N)=O)C(=O)N[C@H](C(N)=O)[C@@H](C)O)C(C)C [Example 36, N^ε24-([2-[2-[2-[[2-[2-[2-[[(4S)-5-hydroxy-4-[(18-hydroxy-18-oxooctadecanoyl)amino]-5-oxopentanoyl]amino]ethoxy]ethoxy]acetyl]amino]ethoxy]ethoxy]acetyl])[Glu^16, Lys^17, Ala^18,Glu^21, Lys^24, Leu^27]Glucagon peptide amide] (H-HSQGTFTSDYSKYLDEKAAQEFVK([AEEA-AEEA-γGlu-C18 diacid])WLLNT-NH2; N-terminus assumed)
10.70	CC(C)C[C@H](NC(=O)[C@H](Cc1ccc(O)cc1)NC(=O)[C@H](CCCCN)NC(=O)[C@H](CO)NC(=O)[C@H](Cc1ccc(O)cc1)NC(=O)[C@H](CC(=O)O)NC(=O)[C@H](CO)NC(=O)[C@@H](NC(=O)[C@H](Cc1ccccc1)NC(=O)[C@@H](NC(=O)CNC(=O)[C@H](CCC(N)=O)NC(=O)[C@H](CO)NC(=O)[C@@H](N)Cc1c[nH]cn1)[C@@H](C)O)[C@@H](C)O)C(=O)N[C@@H](CC(=O)O)C(=O)N[C@@H](CO)C(=O)N[C@@H](CCCNC(=N)N)C(=O)N[C@@H](CCCNC(=N)N)C(=O)N[C@@H](C)C(=O)N[C@@H](CCC(N)=O)C(=O)N[C@@H](CC(=O)O)C(=O)N[C@@H](Cc1ccccc1)C(=O)N[C@H](C(=O)N[C@@H](CCCCNC(=O)COCCOCCNC(=O)COCCOCCNC(=O)CC[C@H](NC(=O)CCCCCCCCCCCCCCCCC(=O)O)C(=O)O)C(=O)N[C@@H](Cc1c[nH]c2ccccc12)C(=O)N[C@@H](CC(C)C)C(=O)N[C@@H](CC(C)C)C(=O)N[C@@H](CO)C(=O)N[C@H](C(=O)O)[C@@H](C)O)C(C)C [Example 14]
11.15	CC(C)C[C@H](NC(=O)[C@H](Cc1ccc(O)cc1)NC(=O)[C@H](CCCCN)NC(=O)[C@H](CO)NC(=O)[C@H](Cc1ccc(O)cc1)NC(=O)[C@H](CC(=O)O)NC(=O)[C@H](CO)NC(=O)[C@@H](NC(=O)[C@H](Cc1ccccc1)NC(=O)[C@@H](NC(=O)CNC(=O)[C@H](CCC(N)=O)NC(=O)C(C)(C)NC(=O)[C@@H](N)Cc1c[nH]cn1)[C@@H](C)O)[C@@H](C)O)C(=O)N[C@@H](CC(=O)O)C(=O)N[C@@H](CCCCNC(=O)COCCOCCNC(=O)COCCOCCNC(=O)CC[C@H](NC(=O)CCCCCCCCCCCCCCCCC(=O)O)C(=O)O)C(=O)N[C@@H](CCCCN)C(=O)N[C@@H](CCCNC(=N)N)C(=O)N[C@@H](C)C(=O)N[C@@H](CCC(N)=O)C(=O)N[C@@H](CCC(=O)O)C(=O)N[C@@H](Cc1ccccc1)C(=O)N[C@H](C(=O)N[C@@H](CCC(N)=O)C(=O)N[C@@H](Cc1c[nH]c2ccccc12)C(=O)N[C@@H](CC(C)C)C(=O)N[C@@H](CC(C)C)C(=O)N[C@@H](CC(N)=O)C(=O)N[C@H](C(N)=O)[C@@H](C)O)C(C)C [Example 39, N^ε16-([2-[2-[2-[[2-[2-[2-[[(4S)-5-hydroxy-4-[(18-hydroxy-18-oxooctadecanoyl)amino]-5-oxopentanoyl]amino]ethoxy]ethoxy]acetyl]amino]ethoxy]ethoxy]acetyl]) [Aib^2, Lys^16, Lys^17, Glu^21,Leu^27] Glucagon peptide amide] (H-H[Aib]QGTFTSDYSKYLDK([AEEA-AEEA-γGlu-C18 diacid])KRAQEFVQWLLNT-NH2; N-terminus assumed)
9.72	CC(C)C[C@H](NC(=O)[C@H](Cc1ccc(O)cc1)NC(=O)[C@H](CCCCN)NC(=O)[C@H](CO)NC(=O)[C@H](Cc1ccc(O)cc1)NC(=O)[C@H](CC(=O)O)NC(=O)[C@H](CO)NC(=O)[C@@H](NC(=O)[C@H](Cc1ccccc1)NC(=O)[C@@H](NC(=O)CNC(=O)[C@H](CCC(N)=O)NC(=O)[C@H](CO)NC(=O)[C@@H](N)Cc1c[nH]cn1)[C@@H](C)O)[C@@H](C)O)C(=O)N[C@@H](CC(=O)O)C(=O)N[C@@H](CO)C(=O)N[C@@H](CCCNC(=N)N)C(=O)N[C@@H](CCCNC(=N)N)C(=O)N[C@@H](C)C(=O)N[C@@H](CCC(N)=O)C(=O)N[C@@H](CC(=O)O)C(=O)N[C@@H](Cc1ccccc1)C(=O)N[C@H](C(=O)N[C@@H](CCC(N)=O)C(=O)N[C@@H](Cc1c[nH]c2ccccc12)C(=O)N[C@@H](CC(C)C)C(=O)N[C@@H](CC(C)C)C(=O)N[C@@H](CCCCNC(=O)CC[C@H](NC(=O)CC[C@H](NC(=O)COCCOCCNC(=O)COCCOCCNC(=O)CC[C@H](NC(=O)CCCCCCCCCCCCCCCCC(=O)O)C(=O)O)C(=O)O)C(=O)O)C(=O)N1CCC[C@H]1C(=O)O)C(C)C [Example 86, N^ε28-[(4S)-4-carboxy-4-[[(4S)-4-carboxy-4-[[2-[2-[2-[[2-[2-[2-[[(4S)-4-carboxy-4-(17-carboxyheptadecanoylamino)butanoyl]amino]ethoxy]ethoxy]acetyl]amino]ethoxy]ethoxy]acetyl]amino]butanoyl]amino]butanoyl]-[Leu^27,Lys^28,Pro^29]-Glucagon]
